In patent US8293771B2, “p38 MAP kinase inhibitors” (Respivert Ltd., priority 2008, dated 2012):

Key:
[1] = test system: LPS-induced neutrophil accumulation; assay: LPS-induced neutrophilia in the mouse; assay type: in vivo
[2] = test system: ovalbumin-mediated lung function changes (sGaw); assay: Ovalbumin challenge/parainfluenza infection model (in vivo model for steroid resistance); parameters: species or system Dunkin-Hartley guinea-pigs
Method: Male Dunkin-Hartley guinea-pigs (300-350 g, n=6/group) were sensitised with 100 μg ovalubumin (OVA)+100 mg Al2(OH)3 in 1 ml normal saline (i.p.) on days 2 and 6. Parainfluenza virus (PIV-3; 10^6 infectious units) or media without virus was nasally instilled on days 11 and 12. Animals were treated with nebulised fluticasone propionate at a dose of 1.5 mg per day. […] All animals were challenged for 1 h with nebulised OVA (10 μg/ml) on day 15 and repeated measurements of specific airways conductance (sGaw) were made over a 24 h period using whole body plethysmography. Measurements of sGaw after OVA challenge are plotted as % change from baseline.

[3] = test system: Differentiated U937 cells; assay: LPS-induced TNFα release in differentiated U937 cells; assay type: cell-based; details: Homo sapiens, U-937; 0.1 ug/ml LPS, 4 hrs; compound pre-incubated 2 hrs
Method: U937 cells, human monocytic cell line, were differentiated to macrophage-type cells by incubation with phorbol myristate acetate (PMA; 100 ng/ml) for 48 to 72 hours. Where appropriate, cells were pre-incubated with final concentrations of compound for 2 hrs. Cells were then stimulated with 0.1 ug/ml of LPS (from E. Coli: O111:B4, Sigma) for 4 hrs, and the supernatant collected for determination of TNFα concentration by sandwich ELISA (Duo-set, R&D systems). THP-1, human monocytic cell line, was also used for this assay. THP-1 cells were stimulated with 1 ug/ml of LPS (from E. Coli: O111:B4, Sigma) for 4 hrs, and the supernatant collected for determination of TNFα concentration.

[4] = test system: Differentiated U937 cells; assay: MTT assay in differentiated U937 cells; assay type: cell-based, human; details: 4, 24 h (10 ug/ml)
Method: Differentiated U937 cells were pre-incubated with compound for 4 hrs in 5% FCS or 10% FCS for 24 hrs and 72 hrs. The supernatant was replaced with 200 ul of new media and 10 ul of MTT stock solution (5 mg/ml) added to each well. After 1 hr incubation, the media were removed, 200 ul of DMSO added to each well and the plates were shaken lightly for 1 hour prior to reading the absorbance at 550 nm.
The percentage loss of cell viability was calculated for each well relative to vehicle (0.5% DMSO)-treatment. Consequently an apparent increase in cell viability for drug treatment relative to vehicle is tabulated as a negative percentage.

[5] = test system: neutrophil and macrophage accumulation into airways of mice exposed to cigarette smoke; assay: Cigarette smoke model; assay type: in vivo, A/J mice; details: intra-nasal, twice daily for 3 days
Method: A/J mice (males, 5 weeks old) were exposed to cigarette smoke (4% cigarette smoke, diluted with compressed air) for 30 min/day for 11 days using a Tobacco Smoke Inhalation Experiment System for small animals (Model SIS-CS; Sibata Scientific Technology, Tokyo, Japan). Test substances were given intra-nasally (35 μl of solution in 50% DMSO/PBS) and therapeutically twice daily for 3 days after the final cigarette smoke exposure. Twelve hours after the last dosing, animals were anesthetized, the trachea cannulated and bronchoalveolar lavage fluid (BALF) was collected. The numbers of alveolar macrophages and neutrophils were determined by FACS analysis (EPICS® ALTRA II, Beckman Coulter, Inc., Fullerton, Calif., USA) using anti-mouse MOMA2 antibody (macrophage) or anti-mouse 7/4 antibody (neutrophil).
The results are shown in FIG. 3 for activated alveolar macrophages and in FIG. 4 for neutrophils. Data for cell numbers are shown as the mean±SEM.

Row | SMILES | inhibition at 50 µg/mL ([1]; Mus musculus, Neutrophil, 50 μg/ml (35 μl, bid)) [%] | Ovalbumin-mediated lung function changes ([2]; sensitized animals treated with PIV3 medium (no virus), nebulised 1.5 mg per day) | IC50 [3] [pM] | Differentiated U937 cells MTT assay [4] | Inhibition of LPS-induced neutrophil accumulation ([1]; mouse, intra tracheal pre-dosing, BALF 8 hours after LPS) | Duration of effect on LPS-induced neutrophil accumulation ([1]; mouse, pre-dose time before LPS) | Efficacy in cigarette smoke model of steroid-resistant inflammation [5] | Efficacy in ovalbumin challenge/parainfluenza model of steroid-resistant inflammation ([2]; guinea pigs, PIV3 inoculated, 4.5 mg per day nebulised)
1 | CCC(=O)O[C@]1(C(=O)SCF)[C@H](C)C[C@H]2[C@@H]3C[C@H](F)C4=CC(=O)C=C[C@]4(C)[C@@]3(F)[C@@H](O)C[C@@]21C [fluticasone propionate, reference compound] | > 80 | inhibited ovalbumin-mediated lung function changes | – | – | – | – | – | –
2 | COCC(=O)Nc1cc(COc2ccc(NC(=O)Nc3cc(C(C)(C)C)nn3-c3ccc(C)cc3)c3ccccc23)ccn1 [Example 1, N-[4-({4-[3-(3-tert-Butyl-1-p-tolyl-1H-pyrazol-5-yl)ureido]naphthalen-1-yloxy}methyl)pyridin-2-yl]-2-methoxyacetamide] | – | – | 880 | Negative^2 | effective in inhibiting LPS-induced neutrophil accumulation | significant inhibition even at 12 or more hours of pre-dosing | effective | effective
